From patent US20110086886A2, “INSECTICIDAL ISOXAZOLINES” (Bayer CropScience AG, priority 2006, published 2011)

Assays:
Aulacophora femoralis = assay: Test for Aulacophora femoralis (spray test); format: in vivo; details: effective component concentration of 500 ppm; 2nd-instar, dipped cucumber leaves; after 7 days
Protocol: (§1) In order to obtain a preparation of a proper active compound, 1 part by weight of an active compound was mixed with the stated amounts of solvent and emulsifier and the mixture was diluted to a specified concentration with water.
The leaves of cucumbers were dipped in the aqueous solution diluted to a specified concentration with water. After the chemical solution was dried in air, these leaves were placed in a plastic cup, in which sterilized black soil was placed. 5 Aulacophora femoralis of the 2nd-instar were set free in the soil, to examine the number of dead insects after 7 days, thereby calculating the insecticidal ratio of the chemical solution.

[1] = system: Myzus persicas resistant to organic phosphorous agents and carbamate agents; assay: Test for Myzus persicas resistant to organic phosphorous agents and carbamate agents; format: in vivo; details: effective component concentration of 500 ppm; spray on egg plant; 24 hours after spraying
Protocol: as §1
About 200 head per plantlet of cultivated Myzus persicas resistant to phosphorous agents and carbamate agents were inoculated on an egg plant. The aqueous dilution containing the above prepared active compound having a specified concentration was sprayed on the egg plant in a sufficient amount by a spray gun one day after the inoculation. The egg plant was allowed to stand in a 28° C. green house, to calculate the insecticidal ratio 24 hours after the solution was sprayed. In this case, the test was made twice repeatedly.

Spodoptera litura larvae = assay: Test for Spodoptera litura larvae (leaf dip); format: in vivo; details: effective component concentration of 500 ppm, 3rd-instar larvae on dipped sweet potato leaves, after 7 days; for pest or weed control at 500 ppm: foliar, 168 h, read-out: insecticidal ratio
Protocol: as §1
The leaves of sweat potatoes were dipped in the test solution diluted to a specified concentration with water. After these leaves were dried in air to remove the chemical solution, they were placed in a Petri dish of 9 cm in diameter, in which 10 Spodoptera litura larvae of the 3rd-instar were set free. The Petri dish was placed in a thermostatic chamber kept at 25° C. and the leaves of sweat potatoes were added after 2 days and 4 days, to examine the number of dead larvae after 7 days, thereby calculating the insecticidal ratio of the chemical solution.
In this test, an average of the results in two Petri dishes in one section was calculated.

Lucilia cuprina larvae = assay: Test for Lucilia cuprina larvae; format: in vivo; details: 48 h, read-out: larval mortality
Protocol: (§2) 20 mg of active compound are dissolved in 1 ml of dimethyl sulphoxide. To prepare a suitable formulation (e.g. 100 ppm), the active compound solution is diluted to the respective desired concentration with water (e.g. 1 part by weight active compound solution with 199 parts by weight water).
Approximately 20 Lucilia cuprina larvae are introduced into a test tube which contains approx. 1 cm^3 horse meat and 0.5 ml of the active compound preparation to be tested. After 48 hours, the efficacy of the active compound preparation is determined as % larval mortality. 0%: no larvae were killed, 100%: all larvae were killed.

[2] = system: Ctenocephalides felis, strain "Georgi"; assay: Test for cat fleas / oral uptake; format: in vivo; details: in Bos taurus, 48 h, read-out: kill (mortality)
Protocol: as §2, with “of the” for “of”, “dimethylsulphoxide” for “of dimethyl sulphoxide.”, “cattle blood” for “water”, “cattle blood).” for “water).”
20 unfed adult fleas (Ctenocephalides felis, strain “Georgi”) are placed into a chamber (Ø 5 cm) whose top and bottom are closed with gauze. A metal cylinder whose underside is covered with parafilm is placed onto the chamber. The cylinder contains the blood/active compound formulation which can be taken up by the fleas through the parafilm membrane. Whereas the blood is warmed to 37° C., the temperature in the area of the flea chambers is adjusted to room temperature.
After the desired time the mortality in % is determined. Here 100% means that all fleas were killed; 0% means that no fleas were killed.

Row | SMILES | insecticidal ratio (Aulacophora femoralis) [%] | insecticidal ratio (Spodoptera litura larvae) [%] | other results
1 | FC(F)(F)c1nnnn1-c1ccc(C2=NOC(c3cc(Cl)cc(Cl)c3)(C(F)(F)F)C2)cc1 (centres unmarked) | – | – | melting point: 147 to 151 °C
2 | N#Cc1cc(C2=NOC(c3cc(Cl)cc(Cl)c3)(C(F)(F)F)C2)ccc1-n1cncn1 (centres unmarked) [Compound 101, 5-[5-(3,5-dichlorophenyl)-5-(trifluoromethyl)-4,5-dihydroisoxazol-3-yl)-2-(1H-1,2,4-triazol-1-yl)benzonitrile] | 100 | – | insecticidal ratio [1]: 100%; pest or weed control at 500 ppm (Spodoptera litura larvae): 100%
3 | N#Cc1cc(C2=NOC(c3cc(Cl)cc(Cl)c3)(C(F)(F)F)C2)ccc1-n1ncnn1 (centres unmarked) [Compound 171] | 100 | 100 | –
4 | N#Cc1cc(C2=NOC(c3cc(Cl)cc(Cl)c3)(C(F)(F)F)C2)ccc1-n1cc(Cl)cn1 (centres unmarked) [Compound 17] | – | – | mortality at 100 ppm (Lucilia cuprina larvae): > 95%; mortality at 100 ppm [2]: > 80%; pest or weed control at 500 ppm (Spodoptera litura larvae): 100%
5 | FC(F)(F)C1(c2cc(Cl)cc(Cl)c2)CC(c2ccc(-n3cnnn3)c(Cl)c2)=NO1 (racemic) [Compound 150] | 100 | 100 | –
6 | N#Cc1cc(C2=NOC(c3cc(Cl)cc(Cl)c3)(C(F)(F)F)C2)ccc1-n1cc(N)cn1 (centres unmarked) [Compound 181] | 100 | 100 | –
7 | COC(=O)Nc1cc(C2=NOC(c3cc(Cl)cc(Cl)c3)(C(F)(F)F)C2)ccc1-n1cncn1 (racemic) [Compound 109] | 100 | 100 | –
8 | FC(F)(F)c1cccc(C2(C(F)(F)F)CC(c3ccc(-n4cnnn4)cc3)=NO2)c1 (centres unmarked) [Compound 157] | 100 | 100 | –
9 | O=[N+]([O-])c1cc(C2=NOC(c3cc(C(F)(F)F)cc(C(F)(F)F)c3)(C(F)(F)F)C2)ccc1-n1cncn1 (racemic) [Compound 136] | 100 | 100 | –
10 | O=[N+]([O-])c1cc(C2=NOC(c3cc(Cl)cc(Cl)c3)(C(F)(F)F)C2)ccc1-n1cncn1 (centres unmarked) [Compound 104, 1-{4-[5-[3,5-dichlorophenyl]-5-(trifluoromethyl)-4,5-dihydroisoxazol-3-yl]-2-nitrophenyl}-1H-1,2,4-triazole] | 100 | – | pest or weed control at 500 ppm (Spodoptera litura larvae): 100%
11 | O=[N+]([O-])c1cc(C2=NOC(c3cc(Cl)cc(Cl)c3)(C(F)(F)F)C2)ccc1-n1cnnn1 (centres unmarked) [Compound 154] | 100 | 100 | –
12 | FC(F)(F)C1(c2cc(Cl)cc(Cl)c2)CC(c2ccc(-n3cnnn3)cc2)=NO1 (centres unmarked) [Compound 148, 1-{4-[5-(3,5-dichlorophenyl)-5-(trifluoromethyl)-4,5-dihydroisoxazol-3-yl]phenyl}-1H-tetrazole] | 100 | – | pest or weed control at 500 ppm (Spodoptera litura larvae): 100%
13 | O=[N+]([O-])c1cc(C2=NOC(c3cc(C(F)(F)F)cc(C(F)(F)F)c3)(C(F)(F)F)C2)ccc1-n1cnnn1 (centres unmarked) [Compound 166, 1-(4-{5-[3,5-bis(trifluoromethyl)phenyl]-5-(trifluoromethyl)-4,5-dihydroisoxazol-3-yl}-2-nitrophenyl)-1H-tetrazole] | 100 | – | pest or weed control at 500 ppm (Spodoptera litura larvae): 100%
14 | FC(F)(F)c1cc(C2=NOC(c3cc(Cl)cc(Cl)c3)(C(F)(F)F)C2)ccc1-n1cncn1 (racemic) [Compound 100] | 100 | 100 | –
15 | N#Cc1cc(C2=NOC(c3cc(C(F)(F)F)cc(C(F)(F)F)c3)(C(F)(F)F)C2)ccc1-n1cncn1 (racemic) [Compound 135] | 100 | 100 | insecticidal ratio [1]: 100%
16 | N#Cc1cc(C2=NOC(c3cccc(C(F)(F)F)c3)(C(F)(F)F)C2)ccc1-n1cc([N+](=O)[O-])cn1 (centres unmarked) [Compound 38] | 100 | 100 | insecticidal ratio [1]: 100%
17 | N#Cc1cc(C2=NOC(c3cc(Cl)cc(Cl)c3)(C(F)(F)F)C2)ccc1-n1cnnn1 (centres unmarked) [Compound 153] | 100 | 100 | insecticidal ratio [1]: 100%
18 | FC(F)(F)c1cccc(C2(C(F)(F)F)CC(c3ccc(-n4cncn4)cc3)=NO2)c1 (racemic) [Compound 122] | 100 | 100 | –
19 | O=[N+]([O-])c1cc(C2=NOC(c3cccc(C(F)(F)F)c3)(C(F)(F)F)C2)ccc1-n1cncn1 (racemic) [Compound 127] | 100 | 100 | –
20 | CC(=O)Nc1cc(C2=NOC(c3cc(Cl)cc(Cl)c3)(C(F)(F)F)C2)ccc1-n1cncn1 (centres unmarked) [Compound 106, N-{5-[5-(3,5-dichlorophenyl)-5-(trifluoromethyl)-4,5-dihydroisoxazol-3-yl]-2-(1H-1,2,4-triazol-1-yl)phenyl}acetamide] | 100 | – | pest or weed control at 500 ppm (Spodoptera litura larvae): 100%
21 | FC(F)(F)C1(c2cc(Cl)cc(Cl)c2)CC(c2ccc(-n3cccc3)cc2)=NO1 (centres unmarked) | – | – | melting point: 206 to 208 °C
22 | FC(F)(F)C1(c2cc(Cl)cc(Cl)c2)CC(c2ccc(-n3cncn3)c(Cl)c2)=NO1 (racemic) [Compound 94] | 100 | 100 | –
